A word on the EC50: it is the concentration at which the effect is half-maximal. Low readings indicate an effect from little substance, high ones a need for much substance. A word on the AUC: it is the area under the concentration-time curve, a measure of exposure. As a reminder, the Cmax is the highest concentration seen after dosing.

Here are results for one compound from patent US20150141375A1 (priority 2009, published 2015).

The subject of one data set is Variola major. As to the kind of experiment: organism not typed. It is filed as cell-based.
For the next data set, the system named is JC. Put plainly: In vitro potency against dsDNA viruses: JC. Type of data set: cell-based, JC virus.
Another data set is described as follows: PK comparison, mouse. It is filed as in vivo. The conditions noted are these: in vivo, 2 mg/kg, calculated from doses of 2 and 10 mg/kg, analyte = label. An excerpt:
Table 4 illustrates the PK comparison of CMX001 with CMX021 and CMX064 for mouse, rabbit and human.

`CCCCCCCCCCCCCCCCOCCCOP(=O)(O)CO[C@H](CO)Cn1ccc(N)nc1=O` [CMX001, Hexadecyloxypropyl-cidofovir]: the “Enhanced Activity” value with Variola major (CMX001 versus cidofovir EC50) is recorded as 271; with JC (CMX001 versus cidofovir EC50), 19. For the same compound, the values for the 50% effective concentration (EC50) with Variola major (Vero 76) and in the data set on JC (JC polyomavirus) were 100 nM and 20 nM, respectively. The AUC in the data set “PK comparison, mouse” (after CMX001) is 83.1 ng·h/mL. The maximum concentration (Cmax) in “PK comparison, mouse” (after CMX001, read-out: Cmax) was 7.9 ng/mL.
